Reference: the supplement of paper PMC3493320

Tested on: NCI-H295R
Experiment: IC50 (antiproliferative, ATP content)
Details: 48 h
Outline: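 Compounds were pin-transferred at 8 final concentrations between 0.6 nM and 46 µM onto adrenocortical carcinoma cells (1500 per well, 1536-well plates) that had been cultured overnight in serum-free DMEM with ITS. Plates then stood 48 h at 37 °C, 5% CO2, and ATP was detected by CellTiter-Glo luminescence. IC50 was derived from logistic fits of normalised signal, and compounds giving no concentration response were noted as above the top dose.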

| SMILES | IC50 [µM] |
| --- | --- |
| F[Si-2](F)(F)(F)(F)F.[NH4+].[NH4+] | > 46 |
| CCCCCC[C@@H](O)C/C=C\CCCCCCCC(=O)[O-].[K+] | > 46 |
| NCCN | > 46 |
| CCCCCl | > 46 |
| Nc1cc(N2CCCCC2)nc(N)[n+]1[O-] | > 46 |
| COc1cc2nc(N3CCN(C(=O)C4COc5ccccc5O4)CC3)nc(N)c2cc1OC.CS(=O)(=O)O (stereo unspecified) | > 46 |
| OC[C@H]1O[C@@H](O[C@H]2[C@H](O)[C@@H](O)[C@H](O)O[C@@H]2CO)[C@H](O)[C@@H](O)[C@@H]1O | > 46 |
| CCN(CC)CCOC(=O)C(O)(c1ccccc1)c1ccccc1 | > 46 |
| O=C1C[C@@H]2OCC=C3CN4CC[C@]56c7ccccc7N1[C@H]5[C@H]2[C@H]3C[C@H]46 | > 46 |
| CC(C)C[C@H](CN)CC(=O)O | > 46 |
| CN(C)CCN(Cc1ccccc1)c1ccccn1.O=C(O)CC(O)(CC(=O)O)C(=O)O | > 46 |
| NC(=O)c1ncn([C@@H]2O[C@H](CO)[C@@H](O)[C@H]2O)c1O | > 46 |
| COc6cc7N1C(=O)CC2OC\C=C5\CN3CC[C@@]4(C1[C@H]2[C@H]5C[C@H]34)c7cc6OC (stereo partly specified) | > 46 |
| CCc1ncnc2cc(OC)c(OC)cc12 | > 46 |
| Cl.NC1C[C@H]1c1ccccc1 (stereo partly specified) | > 46 |
| COc1cc2nc(N3CCN(C(=O)C4CCCO4)CC3)nc(N)c2cc1OC.Cl (stereo unspecified) | > 46 |
| CO/N=C(\C(=O)N[C@@H]1C(=O)N2C(C(=O)O)=C(Cn3ccc(=N)n3CCO)CS[C@H]12)c1csc(N)n1.O=S(=O)(O)O | > 46 |
| CC(=O)OCC(=O)[C@H]2CC[C@H]3[C@@H]4CC\C1=C\C(=O)CC[C@]1(C)[C@H]4CC[C@]23C | > 46 |
| Cc1ncc(C[n+]2csc(CCO)c2C)c(N)n1.Cl.[Cl-] | > 46 |
| C=CCSSSCC=C | > 46 |
| CC[C@@H](CO)NC(=O)[C@@H]1C=C2c3cccc4c3c(cn4C)C[C@H]2N(C)C1 | > 46 |
| CCN(Cc1ccc(Cl)nc1)/C(=C/[N+](=O)[O-])NC | > 46 |
| FC(F)OC(Cl)C(F)(F)F (stereo unspecified) | > 46 |
| C[C@H]1O[C@H](OC[C@@H]2O[C@H](Oc3c(-c4ccc(OCCO)c(OCCO)c4)oc4cc(OCCO)cc(O)c4c3=O)[C@@H](O)[C@H](O)[C@H]2O)[C@@H](O)[C@@H](O)[C@@H]1O | > 46 |

| SMILES | IC50 [µM] |
| --- | --- |
| O=C(O)CCCc1ccc(N(CCCl)CCCl)cc1 | > 46 |
| C[C@]12CCC(=O)C=C1CC[C@H]1[C@@H]3CC[C@](O)(C(=O)CO)[C@@]3(C)C[C@H](O)[C@@]12F | > 46 |
| CN1C2=CC(=O)C(=NNC(N)=O)C=C2CC1S(=O)(=O)[O-].[Na+] (stereo unspecified) | > 46 |
| CO | > 46 |
| COc1ccc(-c2cc(C(F)F)nn2-c2ccc(S(N)(=O)=O)cc2)cc1F | > 46 |
| Cc1c(F)c(N2CCNC(C)C2)cc2c1c(=O)c(C(=O)O)cn2C1CC1.Cl (stereo unspecified) | > 46 |
| CCN(CC)CCOC(=O)c1cccnc1.O=C(O)CC(O)(CC(=O)O)C(=O)O | > 46 |
| N#CN | > 46 |
| NC(CO)(CO)CO | > 46 |
| O=C(N[C@@H](CCCCN)C(N[C@@H](C(O)C)C(N[C@H](C(N[C@@H]([C@@H](O)C)C(N[C@@H](CO)C6=O)=O)=O)CC5=CC=CC=C5)=O)=O)[C@@H](NC([C@@H](NC([C@@H](NC([C@H](CC(N)=O)NC([C@H](CCCCN)NC([C@@H](NC(CNC([C@@H](N)C)=O)=O)CSSC[C@@H]([C@@](O)=O)N6)=O)=O)=O)CC4=CC=CC=C4)=O)CC3=CC=CC=C3)=O)CC1=CNC2=C1C=CC=C2 (stereo partly specified) | > 46 |
| Nc1c2c(nc3ccccc13)CCCC2O.O=C(O)/C=C\C(=O)O (stereo unspecified) | > 46 |
| C[C@]12CC[C@@H]3c4ccc(O)cc4C[C@@H](CCCCCCCCCS(=O)CCCC(F)(F)C(F)(F)F)[C@H]3[C@@H]1CC[C@@H]2O (stereo partly specified) | > 46 |
| c1ccc2c(c1)Nc1ccccc1S2 | > 46 |
| CCCCCCCCCC(=O)O[C@H]2CC[C@H]3[C@@H]4CC\C1=C\C(=O)CC[C@@H]1[C@H]4CC[C@]23C | > 46 |
| NC[C@H]1O[C@H](O[C@H]2[C@H](O)[C@@H](O[C@H]3O[C@H](CO)[C@@H](O)[C@H](N)[C@H]3O)[C@H](N)C[C@@H]2N)[C@H](N)C[C@@H]1O | > 46 |
| O=S(=O)(O)O.Oc1ccc(C(O)CNCCCCCCNCC(O)c2ccc(O)c(O)c2)cc1O (stereo unspecified) | > 46 |
| Cc1ccc(S(=O)(=O)N[C@H](CCCCN)C(=O)CCl)cc1.Cl | > 46 |
| CCN(CCCc1ccccc1)CCCc1ccccc1.O=C(O)CC(O)(CC(=O)O)C(=O)O | > 46 |
| NCC(CC(=O)O)c1ccc(Cl)cc1 (stereo unspecified) | > 46 |
| NC12CC3CC(CC(C3)C1)C2 | > 46 |
| c1ccc(C2CC2)c(OCC2=NCCN2)c1 | > 46 |
| FCOC(C(F)(F)F)C(F)(F)F | > 46 |
| F\C1=C\N(C(=O)NC1=O)[C@@H]2O[C@H](C)[C@@H](O)[C@H]2O | > 46 |
| CCOC(N)=O | > 46 |

More lines, now with the values ahead:

| IC50 [µM] | SMILES |
| --- | --- |
| > 46 | CS(=O)(=O)c1ccc([C@@H](O)[C@@H](CO)NC(=O)C(Cl)Cl)cc1 |
| > 46 | O=C1C(CCS(=O)c2ccccc2)C(=O)N(c2ccccc2)N1c1ccccc1 (stereo unspecified) |
| > 46 | CC=CC=NNC(=O)c1ccncc1 |
| > 46 | CC(=O)Nc1c(I)c(C(=O)[O-])c(I)c(N(C)C(C)=O)c1I.[Na+] |
| > 46 | NC(=O)c1ncn([C@@H]2O[C@H](CO)[C@@H](O)[C@H]2O)n1 |
| > 46 | C[Se]CCC(N)C(=O)O (stereo unspecified) |
| > 46 | O=Cc1ccccc1C=O |
| > 46 | CCC(C)[C@@H](N)C(=O)O (stereo partly specified) |
| > 46 | CNC[C@H](O)[C@@H](O)[C@@H](O)[C@H](O)CO.Cc1c(Nc2ncccc2C(=O)O)cccc1C(F)(F)F |
| > 46 | CC(N)C(=O)OC(C)(C)Cc1ccc(Cl)cc1 (stereo unspecified) |
| > 46 | O=C([O-])c1cc2cc(Cc3cccnc3)ccc2o1.[Na+] |
| > 46 | CC(C)CCOC(=O)c1ccc(N(C)C)cc1 |
| > 46 | CN1CCN(c2cc3c(nn2)Oc2ccccc2N3C)CC1 |
| > 46 | CCN(CC)C(=O)/C(C#N)=C/c1cc(O)c(O)c([N+](=O)[O-])c1 |
| > 46 | CS(=O)(=O)c1ccc([C@@H](O)[C@@H](COC(=O)CN)NC(=O)C(Cl)Cl)cc1.Cl |
| > 46 | O=c1[nH]c(=O)c2ccccc2o1 |
| > 46 | CC(CN1c2ccccc2Sc2ccccc21)N(C)C (stereo unspecified) |
| > 46 | O=C([O-])CC(O)C(=O)[O-].[Na+].[Na+] (stereo unspecified) |
| > 46 | CCCNC(C)C(=O)Nc1ccccc1C.Cl (stereo unspecified) |
| > 46 | CC(C)Cc1ccc([C@@H](C)C(=O)NS(C)(=O)=O)cc1 |
| > 46 | CC(=O)Nc1ccc(O)cc1 |
| > 46 | N21/C(=C(/SCCNC=N)C[C@@H]1[C@H](C2=O)[C@H](O)C)C(=O)O |
| > 46 | CC1=C(C/C=C(\C)CCC[C@H](C)CCC[C@H](C)CCCC(C)C)C(=O)c2ccccc2C1=O |
| > 46 | Cn1c(=O)c2c(ncn2CCOC(=O)C(C)(C)Oc2ccc(Cl)cc2)n(C)c1=O |
| > 46 | CC(C)C[C@@H](N)C(=O)O |
| > 46 | O=C(O)CCNC(=O)c1ccccc1 |
| > 46 | O=C(O)CCc1nc(-c2ccccc2)c(-c2ccccc2)o1 |

| IC50 [µM] | SMILES |
| --- | --- |
| > 46 | O=C([C@H](C)CS)N(CCC1)[C@@H]1[C@@](O)=O |
| > 46 | O=C(c1ccc(F)cc1)C1CCN(CCn2c(=O)[nH]c3ccccc3c2=O)CC1 |
| > 46 | O=C(/C=C/c1cccc(F)c1)NC1CC1 |
| > 46 | CC(COc1ccccc1)NC(C)C(O)c1ccc(O)cc1.Cl (stereo unspecified) |
| > 46 | O=C([C@H](CC1=CN=CN1)N[C@]([C@H](CC2)NC2=O)=O)N(CCC3)[C@@H]3[C@](N)=O |
| > 46 | C=CCCCCCCCCC(=O)O |
| > 46 | CC(Cc1ccccc1)(NC(=O)CN)c1ccccc1.Cl (stereo unspecified) |
| > 46 | CN(C)CC/C=C1C(C=CC=C3)=C3C=CC2=C\1C=CC=C2.Cl |
| > 46 | Cc1cc(-n2nc3ccc(Cl)cc3n2)c(O)c(C(C)(C)C)c1 |
| > 46 | [O-][n+]1cccc(CO)c1 |
| > 46 | N=C(N)NN=Cc1c(Cl)cccc1Cl |
| > 46 | O=S(C1=CC=CC2=C1NC[C@H](C)C2)(N[C@@H](CCCNC(N)=N)C(N3[C@@H]([C@](O)=O)C[C@H](C)CC3)=O)=O |
| > 46 | COc1ccc(C2C(=O)c3ccccc3C2=O)cc1 |
| > 46 | CC(C(=O)O)c1ccc2c(c1)[nH]c1ccc(Cl)cc12 (stereo unspecified) |
| > 46 | CC[N+](C)(CC)CCOC(=O)C1c2ccccc2Oc2ccccc21.[Br-] |
| > 46 | Cl.O=C(O)c1cn(C2CC2)c2cc(N3CCNCC3)c(F)cc2c1=O |
| > 46 | O=C1OC2(c3ccc([O-])cc3Oc3cc([O-])ccc32)c2ccccc21.[Na+].[Na+] |
| > 46 | Cc1cccc(C)c1NC(=O)CC12CCCN1CCC2 |
| > 46 | CN(C)C/C=C(/c1ccc(Br)cc1)c1cccnc1.Cl.Cl.O |
| > 46 | Cl.O=C(CCCN1CCC(O)(c2cccc(C(F)(F)F)c2)CC1)c1ccc(F)cc1 |
| > 46 | CCN(CC)CCOc1ccc2nc(N(C)C)sc2c1 |
| > 46 | COc1ccccc1N1CCN(CCCCNC(=O)c2ccc(-c3ccc(C(C)=O)cc3)cc2)CC1 |
| > 46 | Nc1nc(=O)c2nc(CNc3ccc(C(=O)N[C@@H](CCC(=O)O)C(=O)O)cc3)cnc2[nH]1 |
| > 46 | COC(=O)C(CN)c1c[nH]c2ccc(OC)cc12.Cl (stereo unspecified) |
| > 46 | Cc1ccc(S(=O)(=O)[N-]Cl)cc1.O.O.O.[Na+] |
| > 46 | CC1Cc2ccccc2N1NC(=O)c1ccc(Cl)c(S(N)(=O)=O)c1 (stereo unspecified) |
